Measured values published in paper PMC7669869, “AdipoR1/AdipoR2 dual agonist recovers nonalcoholic steatohepatitis and related fibrosis via endoplasmic reticulum-mitochondria axis” (Nature Communications, 2020).
Non-standard residues stand in square brackets, D forms with d. Residues, ends and D or L forms follow the SMILES beside them. Nva = CCC[C@H](N)C(=O)O

What was measured:
HFD + MCD diet NASH mice = assay: HFD combined with MCD diet NASH mice: weight gain, HE steatosis area; type: in vivo, mouse; settings: HFD 16 weeks + MCD diet last 4 weeks; compared with ADP355; in words
Procedure: (§1) The NASH model was conducted with feeding a HFD for 16 weeks combine with a MCD diet (Methionine/Choline Deficient Diet, Medicience, China) in the last 4 weeks. Mice administered a MCS diet (Methionine/Choline Sufficient Diet, Medicience, China) serves as control group. NAFLD or NASH mice treated with JT003 for 4 weeks were used to evaluate the pharmacological effects (n = 6; 500 μg kg^−1; daily intraperitoneal injection). Food and water were provided ad libitum. The body weight of mice was examined every 3 days. The diet was renewed every 7 days. JT003 was diluted in PBS.
The levels of TG and HYP in liver tissue were detected with certain commercial assay kit (Nanjing Jiancheng Bioengineering Institute, China). Formalin-fixed liver tissues were embedded in paraffin, sectioned into 5 μm slices. After deparaffinization and rehydration of the section slices, they were stained with Haematoxylin and Eosin or Periodic Acid-Schiff. For the detection of liver collagen content, Sirius Red staining for collagen was performed. […] The cryostat-cut slices were stained with freshly prepared Oil Red O working solution for 7 min Two independent experimenters who were blinded to the treatment evaluated the staining slides and analyzed the score for steatosis, glucogen accumulation and collagen proliferation area.

HepG2 cells = assay: PA induced lipid accumulation, Oil Red O staining; type: cell-based, human; settings: HepG2, 0.25 mM PA + 200 μM peptide, 24 h; in words
Procedure: Hepatoma carcinoma cell line HepG2 and human hepatic activated stellate cell line LX2 used in this study were purchased from Type Culture Collection of the Chinese Academy of Sciences (Shanghai, China). Cells were cultured in Dulbecco’s modified Eagle’s medium (DMEM) with 10% fetal bovine serum (FBS), supplemented with 1% penicillin–streptomycin (ThermoFisher Scientific, USA) at 37 °C in a humidified atmosphere of 5% CO2. In PA (Sigma, USA) induced lipid accumulation cell model, HepG2 cells were seeded into a 6-well plate at 5E5 cells per well. 0.25 mM PA and/or 200 μM candidate peptides were co-incubated with cells for 24 h. Then Oil Red O staining was performed to evaluate the accumulation of lipid droplets. BSA (Sigma, USA) was used in this experiment as the negative control. For LX2 cells, 2E5 cells were seeded, then the adherent cells were exposed to 200 μM candidate peptides for another 48 h. Next, the cell protein was obtained and western blotting was performed. Candidate peptides were diluted in DMEM in a stock concentration of 1 M.

[1] = system: liver gene expression of HFD induced NASH mice; assay: HFD mice: liver mRNA, quantitative RT-PCR; type: in vivo, mouse; settings: for CD14 liver mRNA, relative expression, Supplementary Figure 11b / F4/80 liver mRNA, relative expression, Supplementary Figure 11b / IL-1b liver mRNA, relative expression, Supplementary Figure 11b / IL-6 liver mRNA, relative expression, Supplementary Figure 11b / LY6G liver mRNA, relative expression, Supplementary Figure 11b / iNOS liver mRNA, relative expression, Supplementary Figure 11b: HFD + JT003 mice
Procedure: as §1
(§2) Liver total RNA was extracted by using Trizol reagent following the manufacture’s instruction (TransGen Biotech, China). The concentration of RNA was measured by Nanodrop 2000 (ThermoFisher Scientific, USA). cDNA was transcribed from 10ug total RNA with First Strand cDNA synthesis Super Mix (TransGen Biotech, China). The cDNA was diluted 1/50 and 1.0 uL were used as a template for qPCR. qPCR was performed with SYBR Green qPCR Super Mix (TransGen Biotech, China) in the Light Cycler 480 Real-Time PCR System (Roche, Swiss). Reference gene β-actin was used for data normalization. mRNA expression was analyzed with specific primers listed in Supplementary Table 2.

[2] = system: AdipoR1 and AdipoR2 in LX2 cells; assay: RNA interference (AdipoR1/AdipoR2 siRNA) in LX2: PPARα, PPARγ mRNA and protein; type: cell-based, human; settings: JT003 48 h, in words
Procedure: AdipoR1 and AdipoR2 siRNA as well as mock siRNA were chemically synthesized (GenePharma, China) and transfected into 60–70% confluent HepG2 and LX2 cells using Lipofectamine 3000 (ThermoFisher Scientific, USA). Dilution of siRNA and Lipofectamine 3000 reagents as well as the transfection of cells were performed following the manufacturer’s protocol. For HepG2 cell model, 5E5 cells were plated in 6-well plates and transfected with 5 μL of 20 μM stock siRNA. At 48 h following transfection, the cells were processed for 0.25 mM PA and/or 200 μM JT003 treated for another 24 h. BSA was used as the negative control. […]
as §2, with “The cDNA was diluted 1/50 and 1.0 uL were used as a template for qPCR. qPCR was performed with SYBR Green qPCR Super Mix (TransGen Biotech, China) in the Light Cycler 480 Real-Time PCR System (Roche, Swiss).” left out
Total protein was isolated from cells or liver samples using RIPA lysis buffer (50.0 mM Tris-HCl (pH = 8.0), 150.0 mM NaCl, 0.02% NaN3, 0.1% SDS, 1% NP-40, 0.5% deoxysodium cholate, 1 mM EDTA, […]). The protein concentration was quantified with BCA kit (Pierce, ThermoFisher Scientific, USA). […]

[3] = HFD mice, liver, JT003 500 μg kg−1, in words

Structure (SMILES): CCC[C@H](NC(=O)[C@@H]1CCCN1)C(=O)N[C@@H](CC(C)C)C(=O)N[C@@H](Cc1ccc(O)cc1)C(=O)N[C@@H](Cc1ccc(O)cc1)C(=O)N[C@@H](Cc1ccccc1)C(=O)N[C@@H](C)C(N)=O [JT003] (H-P[Nva]LYYFA-NH2)
- lipid accumulation in HFD combine with MCD diet NASH mouse model (HFD + MCD diet NASH mice): inhibited lipid accumulation significantly with a 20 times lower dosage
- lipid droplets accumulation caused by PA (Oil Red O) (HepG2 cells): exhibited the best potential
- CD14 liver mRNA, relative expression, Supplementary Figure 11b ([1]; replicate 1): 0.836
- F4/80 liver mRNA, relative expression, Supplementary Figure 11b ([1]; replicate 1): 1.324
- IL-1b liver mRNA, relative expression, Supplementary Figure 11b ([1]; replicate 1): 0.2358
- IL-6 liver mRNA, relative expression, Supplementary Figure 11b ([1]; replicate 1): 0.3838
- LY6G liver mRNA, relative expression, Supplementary Figure 11b ([1]; replicate 1): 1.539
- iNOS liver mRNA, relative expression, Supplementary Figure 11b ([1]; replicate 1): 0.7587
- CD14 liver mRNA, relative expression, Supplementary Figure 11b ([1]; replicate 2): 0.7038
- F4/80 liver mRNA, relative expression, Supplementary Figure 11b ([1]; replicate 2): 1.41
- IL-1b liver mRNA, relative expression, Supplementary Figure 11b ([1]; replicate 2): 0.3558
- IL-6 liver mRNA, relative expression, Supplementary Figure 11b ([1]; replicate 2): 0.9338
- LY6G liver mRNA, relative expression, Supplementary Figure 11b ([1]; replicate 2): 2.089
- iNOS liver mRNA, relative expression, Supplementary Figure 11b ([1]; replicate 2): 1.076
- CD14 liver mRNA, relative expression, Supplementary Figure 11b ([1]; replicate 3): 0.548
- F4/80 liver mRNA, relative expression, Supplementary Figure 11b ([1]; replicate 3): 0.6014
- IL-1b liver mRNA, relative expression, Supplementary Figure 11b ([1]; replicate 3): 0.1532
- IL-6 liver mRNA, relative expression, Supplementary Figure 11b ([1]; replicate 3): 0.2832
- LY6G liver mRNA, relative expression, Supplementary Figure 11b ([1]; replicate 3): 0.8264
- iNOS liver mRNA, relative expression, Supplementary Figure 11b ([1]; replicate 3): 1.076
- CD14 liver mRNA, relative expression, Supplementary Figure 11b ([1]; replicate 4): 0.7504
- F4/80 liver mRNA, relative expression, Supplementary Figure 11b ([1]; replicate 4): 1.0118
- IL-1b liver mRNA, relative expression, Supplementary Figure 11b ([1]; replicate 4): 0.1494
- IL-6 liver mRNA, relative expression, Supplementary Figure 11b ([1]; replicate 4): 0.2961
- LY6G liver mRNA, relative expression, Supplementary Figure 11b ([1]; replicate 4): 2.4
- iNOS liver mRNA, relative expression, Supplementary Figure 11b ([1]; replicate 4): 0.5084
- CD14 liver mRNA, relative expression, Supplementary Figure 11b ([1]; replicate 5): 0.8521
- F4/80 liver mRNA, relative expression, Supplementary Figure 11b ([1]; replicate 5): 0.7678
- IL-1b liver mRNA, relative expression, Supplementary Figure 11b ([1]; replicate 5): 0.1331
- IL-6 liver mRNA, relative expression, Supplementary Figure 11b ([1]; replicate 5): 0.3878
- iNOS liver mRNA, relative expression, Supplementary Figure 11b ([1]; replicate 5): 1.435
- F4/80 liver mRNA, relative expression, Supplementary Figure 11b ([1]; replicate 6): 1.044
- IL-6 liver mRNA, relative expression, Supplementary Figure 11b ([1]; replicate 6): 0.3111
- G6Pase expression level in liver ([1]; HFD mice, JT003 500 μg kg−1, compared to HFD mice, in words): significantly elevated
- expression of antioxidant enzymes (SOD and CAT) and mitochondrial biogenesis regulators (PGC1α and PGC1β) [1, 3]: accelerated prominently
- expression of genes related to fatty acid synthesis (PPARγ, ACC1, FASN, DGAT1, FAS, SCD1, ASCL3), fatty acid uptake (CD36) and cholesterol synthesis (HMGCR, SREBP-1C) [1, 3]: significantly inhibited
- expression of genes responsible for fatty acid β-oxidation (LCAD, MCAD, UCP2, CPT1α) [1, 3]: much higher
- overexpression of genes related to inflammation (LY6G, F4/80, IL-6, IL-1β, iNOS, CD14) and ER stress (XBP1, ATF4, CHOP, BID and GRP78) [1, 3]: suppressed significantly
- upregulation of genes related to mitochondrial dysfunction (CYP2E1, BAX, NQO1, SRXN1 and GPX1) [1, 3]: suppressed remarkably
- effect of AdipoR1 and AdipoR2 siRNA on PPARα level induced by JT003 [2]: reduced the increase of the PPARα level induced by JT003
